The target of the assay is GCN2 kinase (Homo sapiens, UniProt Q9P2K8). The experiment in a line: GCN2 enzyme inhibition assay (Transcreener ADP2 fluorescence polarization). The assay is classed as biochemical. Conditions: Enzyme activity for compounds of Formula IV; Ki(app), 280 μM ATP, 25° C. A digest of the protocol:
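ADP formation read by Transcreener FP after a 1 h, 25 °C kinase reaction containing 280 μM ATP, 200 μM (RS)7 substrate and 4 nM GCN2, pH 7.5 Tris buffer. Compounds (0–8 μM final) were added 10 min before ATP. Percent inhibition gave IC50 and apparent Ki via tight-binding fit.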

Molecules are shown by their SMILES. A value given as a limit tells only on which side of the number the result lay.

GCN2 kinase, sequence (Q9P2K8 whole entry): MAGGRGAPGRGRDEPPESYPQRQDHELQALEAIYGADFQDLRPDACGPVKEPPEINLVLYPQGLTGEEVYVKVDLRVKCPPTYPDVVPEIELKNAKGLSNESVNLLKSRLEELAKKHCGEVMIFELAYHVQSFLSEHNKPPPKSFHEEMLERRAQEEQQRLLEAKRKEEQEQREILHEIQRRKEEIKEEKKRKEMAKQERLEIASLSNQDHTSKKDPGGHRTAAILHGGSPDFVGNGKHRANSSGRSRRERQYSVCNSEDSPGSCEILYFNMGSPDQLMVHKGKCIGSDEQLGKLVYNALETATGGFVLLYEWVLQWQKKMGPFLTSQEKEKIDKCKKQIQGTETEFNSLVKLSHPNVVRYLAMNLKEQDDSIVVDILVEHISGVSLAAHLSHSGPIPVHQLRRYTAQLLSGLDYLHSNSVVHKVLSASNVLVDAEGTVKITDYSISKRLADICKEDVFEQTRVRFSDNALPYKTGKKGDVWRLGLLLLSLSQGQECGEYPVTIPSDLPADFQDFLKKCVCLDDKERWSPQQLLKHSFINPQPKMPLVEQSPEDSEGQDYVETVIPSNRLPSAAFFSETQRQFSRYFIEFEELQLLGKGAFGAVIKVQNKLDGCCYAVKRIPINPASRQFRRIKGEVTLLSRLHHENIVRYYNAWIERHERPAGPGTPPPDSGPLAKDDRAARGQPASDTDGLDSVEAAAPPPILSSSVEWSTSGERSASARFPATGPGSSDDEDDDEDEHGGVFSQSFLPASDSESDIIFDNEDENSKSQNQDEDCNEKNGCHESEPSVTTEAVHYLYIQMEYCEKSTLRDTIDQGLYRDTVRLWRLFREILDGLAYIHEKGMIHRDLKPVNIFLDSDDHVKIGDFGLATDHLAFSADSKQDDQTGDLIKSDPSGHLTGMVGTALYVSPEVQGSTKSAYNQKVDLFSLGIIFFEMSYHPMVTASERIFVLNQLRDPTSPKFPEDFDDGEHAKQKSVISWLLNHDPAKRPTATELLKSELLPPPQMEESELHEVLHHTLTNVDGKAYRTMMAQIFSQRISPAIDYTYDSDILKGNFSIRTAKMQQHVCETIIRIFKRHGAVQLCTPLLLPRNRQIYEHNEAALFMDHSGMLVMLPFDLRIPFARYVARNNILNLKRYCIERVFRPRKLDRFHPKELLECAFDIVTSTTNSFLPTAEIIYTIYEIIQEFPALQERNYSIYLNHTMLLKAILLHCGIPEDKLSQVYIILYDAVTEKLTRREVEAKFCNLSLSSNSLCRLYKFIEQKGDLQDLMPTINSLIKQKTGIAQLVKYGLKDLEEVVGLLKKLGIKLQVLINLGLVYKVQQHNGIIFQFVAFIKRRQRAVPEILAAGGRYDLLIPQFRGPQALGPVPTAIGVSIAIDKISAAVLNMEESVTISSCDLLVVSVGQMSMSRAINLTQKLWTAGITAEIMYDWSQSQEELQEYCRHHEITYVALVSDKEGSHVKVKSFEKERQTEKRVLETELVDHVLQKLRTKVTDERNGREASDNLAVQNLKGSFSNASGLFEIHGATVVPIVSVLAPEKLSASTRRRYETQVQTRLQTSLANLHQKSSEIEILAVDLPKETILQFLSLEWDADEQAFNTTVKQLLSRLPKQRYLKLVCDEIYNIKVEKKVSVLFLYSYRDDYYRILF

For the compound `O=S1(=O)CCCN1C1CCCN(c2ccnc(-c3cnc4cnc(C(F)(F)F)cn34)n2)C1` (stereo not drawn) [IV-658, 2-(1-(2-(6-(Trifluoromethyl)imidazo[1,2-a]pyrazin-3-yl)pyrimidin-4-yl)piperidin-3-yl)isothiazolidine 1,1-dioxide], the Ki was 100 to 1000 nM.
For `FC(F)(F)c1cn2c(-c3nccc(N4CCCC(c5n[nH]c(C6CCCCC6)n5)C4)n3)cnc2cn1` (stereo not drawn) [IV-659, 3-(4-(3-(5-Cyclohexyl-1H-1,2,4-triazol-3-yl)piperidin-1-yl)pyrimidin-2-yl)-6-(trifluoromethyl)imidazo[1,2-a]pyrazine], the Ki is 100 to 1000 nM.
The same measure for `O=c1nc(C2CCCN(c3ccnc(-c4cnc5cnc(C(F)(F)F)cn45)n3)C2)[nH][nH]1` (stereo not drawn) [IV-660, 5-(1-(2-(6-(Trifluoromethyl)imidazo[1,2-a]pyrazin-3-yl)pyrimidin-4-yl)piperidin-3-yl)-1,2-dihydro-3H-1,2,4-triazol-3-one]: 100 to 1000 nM; for `Cc1nc(C2CN(c3ccnc(-c4cnc5cnc(C(F)(F)F)cn45)n3)CCO2)n[nH]1` (stereo not drawn) [IV-661, 2-(5-Methyl-1H-1,2,4-triazol-3-yl)-4-(2-(6-(trifluoromethyl)imidazo[1,2-a]pyrazin-3-yl)pyrimidin-4-yl)morpholine]: 100 to 1000 nM; for `Cn1nc(C2CCCN(c3ccnc(-c4cnc5cnc(C(F)(F)F)cn45)n3)C2)cc1CCO` (stereo not drawn) [IV-662, 2-(1-Methyl-3-(1-(2-(6-(trifluoromethyl)imidazo[1,2-a]pyrazin-3-yl)pyrimidin-4-yl)piperidin-3-yl)-1H-pyrazol-5-yl)ethan-1-ol]: 100 to 1000 nM.
The same measure for `O=C1CC(C2CCCN(c3ccnc(-c4cnc5cnc(C(F)(F)F)cn45)n3)C2)CN1` (stereo not drawn) [IV-663, 4-(1-(2-(6-(Trifluoromethyl)imidazo[1,2-a]pyrazin-3-yl)pyrimidin-4-yl)piperidin-3-yl)pyrrolidin-2-one]: 100 to 1000 nM.
For `FC(F)(F)c1cn2c(-c3nccc(N4CCCC(n5ccc(C(F)(F)F)n5)C4)n3)cnc2cn1` (stereo not drawn) [IV-664, 6-(Trifluoromethyl)-3-(4-(3-(3-(trifluoromethyl)-1H-pyrazol-1-yl)piperidin-1-yl)pyrimidin-2-yl)imidazo[1,2-a]pyrazine] the value was 100 to 1000 nM; for `FC(F)(F)c1cn2c(-c3nccc(N4CCCC(n5cccn5)C4)n3)cnc2cn1` (stereo not drawn) [IV-665, 3-(4-(3-(1H-Pyrazol-1-yl)piperidin-1-yl)pyrimidin-2-yl)-6-(trifluoromethyl)imidazo[1,2-a]pyrazine], 100 to 1000 nM; for `CC1CN(c2ccnc(-c3cnc4cnc(C(F)(F)F)cn34)n2)C(C)C(c2c[nH]c(C(F)(F)F)n2)N1` (stereo not drawn) [IV-666, 3-(4-(2,5-Dimethyl-3-(2-(trifluoromethyl)-1H-imidazol-4-yl)piperazin-1-yl)pyrimidin-2-yl)-6-(trifluoromethyl)imidazo[1,2-a]pyrazine], 10 to 100 nM.
Turning to `FC(F)(F)c1cn2c(-c3nccc(N4CCCC(c5nncs5)C4)n3)cnc2cn1` (stereo not drawn) [IV-671, 2-(1-(2-(6-(Trifluoromethyl)imidazo[1,2-a]pyrazin-3-yl)pyrimidin-4-yl)piperidin-3-yl)-1,3,4-thiadiazole], the Ki is 100 to 1000 nM.
On to `FC(F)(F)c1cn2c(-c3nccc(N4CC(CN5CCC5)CC(c5cn[nH]c5)C4)n3)cnc2cn1` (stereo not drawn) [IV-681, 3-(4-(3-(Azetidin-1-ylmethyl)-5-(1H-pyrazol-4-yl)piperidin-1-yl)pyrimidin-2-yl)-6-(trifluoromethyl)imidazo[1,2-a]pyrazine], for which the Ki was 10 to 100 nM.
The same measure for `CC1C(c2cn[nH]c2)CC(P(C)(C)=O)CN1c1ccnc(-c2cnc3cnc(C(F)(F)F)cn23)n1` (stereo not drawn) [IV-697, Dimethyl(6-methyl-5-(1H-pyrazol-4-yl)-1-(2-(6-(trifluoromethyl)imidazo[1,2-a]pyrazin-3-yl)pyrimidin-4-yl)piperidin-3-yl)phosphine oxide]: 100 to 1000 nM.
The same measure for `CS(=O)(=O)N1CCC2(CC1)CN(c1ccnc(-c3cnc4cnc(C(F)(F)F)cn34)n1)C2` [IV-698, 3-(4-(7-(Methylsulfonyl)-2,7-diazaspiro[3.5]nonan-2-yl)pyrimidin-2-yl)-6-(trifluoromethyl)imidazo[1,2-a]pyrazine]: 100 to 1000 nM; for `CC(=O)N1CCN(c2ccnc(-c3cnc4cnc(C(N)=O)cn34)n2)CC1(C)C` [IV-699, 3-(4-(4-Acetyl-3,3-dimethylpiperazin-1-yl)pyrimidin-2-yl)imidazo[1,2-a]pyrazine-6-carboxamide]: 100 to 1000 nM.
The same measure for `CC(=O)N1CCN(c2ccc(C(F)(F)F)c(-c3cnc4cnc(C(N)=O)cn34)n2)CC1` [IV-700, 3-(6-(4-acetylpiperazin-1-yl)-3-(trifluoromethyl)pyridin-2-yl)imidazo[1,2-a]pyrazine-6-carboxamide]: 100 to 1000 nM; for `COc1cnc(N2CCN(C(C)=O)CC2)nc1-c1cnc2cnc(C(N)=O)cn12` [IV-701, 3-(2-(4-acetylpiperazin-1-yl)-5-methoxypyrimidin-4-yl)imidazo[1,2-a]pyrazine-6-carboxamide]: 100 to 1000 nM; for `FC(F)(F)c1cn2c(-c3nccc(N4CCC[C@@H](c5c[nH]cn5)C4)n3)cnc2cn1` [IV-706]: under 10 nM.
On to `FC(F)(F)c1cn2c(-c3nccc(N4CCC[C@H](c5c[nH]cn5)C4)n3)cnc2cn1` [IV-707], for which the Ki was 10 to 100 nM.
The same measure for `FC(F)(F)c1cn2c(-c3nccc(N4CCCC(c5ncc[nH]5)C4)n3)cnc2cn1` (stereo not drawn) [IV-708]: 10 to 100 nM; for `O=C(N[C@@H]1CCCN(c2ccnc(-c3cnc4cnc(C(F)(F)F)cn34)n2)C1)c1cn[nH]c1` [IV-709]: 100 to 1000 nM; for `NS(=O)(=O)c1ccc(C(=O)N[C@@H]2CCCN(c3ccnc(-c4cnc5cnc(C(F)(F)F)cn45)n3)C2)o1` [IV-710]: 100 to 1000 nM.
The compound `FC(F)(F)c1cn2c(-c3nccc(N4CCOC(c5cccnc5)C4)n3)cnc2cn1` (stereo not drawn) [IV-711] registered a Ki of 100 to 1000 nM.
For `FC(F)(F)c1cn2c(-c3nccc(N4CCO[C@H](c5ccccn5)C4)n3)cnc2cn1` [IV-713] the value was 100 to 1000 nM.
The same measure for `Cc1csc2c1CN(c1ccnc(-c3cnc4cnc(C(F)(F)F)cn34)n1)CC2` [IV-714]: 100 to 1000 nM; for `NS(=O)(=O)c1cc2c(s1)CCN(c1ccnc(-c3cnc4cnc(C(F)(F)F)cn34)n1)C2` [IV-715]: 100 to 1000 nM.
In turn, `FC(F)(F)c1cn2c(-c3nccc(N4CCOC(c5ccccn5)C4)n3)cnc2cn1` (stereo not drawn) [IV-717] yielded a Ki of 100 to 1000 nM.
For `C[C@H]1CN(c2ccnc(-c3cnc4cnc(C(F)(F)F)cn34)n2)C[C@@H](c2nc(C3CC3)no2)O1` [IV-718] the value was 100 to 1000 nM.
For `FC(F)(F)c1cn2c(-c3nccc(N4CCCC(c5ncccn5)C4)n3)cnc2cn1` (stereo not drawn) [IV-719] the value was 100 to 1000 nM.
The same measure for `O=C(Nc1ccncc1)[C@H]1CCCN(c2ccnc(-c3cnc4cnc(C(F)(F)F)cn34)n2)C1` [IV-720]: 100 to 1000 nM; for `O=C(Nc1cn[nH]c1)[C@H]1CCCN(c2ccnc(-c3cnc4cnc(C(F)(F)F)cn34)n2)C1` [IV-721]: 100 to 1000 nM.
The compound `FC(F)(F)c1cn2c(-c3nccc(N4CCO[C@@H](c5ccccn5)C4)n3)cnc2cn1` [IV-722] registered a Ki of 100 to 1000 nM.
The same measure for `O=C(Nc1cccnc1)[C@H]1CCCN(c2ccnc(-c3cnc4cnc(C(F)(F)F)cn34)n2)C1` [IV-723]: 100 to 1000 nM; for `O=C(Nc1cn[nH]c1)[C@@H]1CCCN(c2ccnc(-c3cnc4cnc(C(F)(F)F)cn34)n2)C1` [IV-725]: over 1000 nM; for `N#CC1CN(c2ccnc(-c3cnc4cnc(C(F)(F)F)cn34)n2)CCO1` (stereo not drawn) [IV-726]: over 1000 nM.
Compound `CS(=O)(=O)N=S1(=O)CCN(c2ccnc(-c3cnc4cnc(C(F)(F)F)cn34)n2)CC1` [IV-727] returned a Ki of over 1000 nM.
The same measure for `Cn1cc(NC(=O)[C@@H]2CCCN(c3ccnc(-c4cnc5cnc(C(F)(F)F)cn45)n3)C2)cn1` [IV-728]: over 1000 nM; for `N=S1(=O)CCN(c2ccnc(-c3cnc4cnc(C(F)(F)F)cn34)n2)CC1` [IV-729]: over 1000 nM.
The same measure for `CC1c2ccsc2CCN1c1ccnc(-c2cnc3cnc(C(F)(F)F)cn23)n1` (stereo not drawn) [IV-730]: over 1000 nM; for `O=C(O)C1c2sccc2CCN1c1ccnc(-c2cnc3cnc(C(F)(F)F)cn23)n1` (stereo not drawn) [IV-731]: over 1000 nM.
For `O=C(N[C@H]1CCCN(c2ccnc(-c3cnc4cnc(C(F)(F)F)cn34)n2)C1)C1CC1` [IV-732] the value was over 1000 nM.
Turning to `O=C(N[C@H]1CCCN(c2ccnc(-c3cnc4cnc(C(F)(F)F)cn34)n2)C1)c1cccnc1F` [IV-734], the Ki is over 1000 nM.
The same measure for `NS(=O)(=O)c1ccc(C(=O)N[C@H]2CCCN(c3ccnc(-c4cnc5cnc(C(F)(F)F)cn45)n3)C2)o1` [IV-735]: over 1000 nM.
The same measure for `N[C@H]1CCCN(c2ccnc(-c3cnc4cnc(C(F)(F)F)cn34)n2)C1` [IV-736]: over 1000 nM; for `O=C(N[C@H]1CCCN(c2ccnc(-c3cnc4cnc(C(F)(F)F)cn34)n2)C1)c1cc[nH]n1` [IV-737]: over 1000 nM; for `O=C(Nc1cccnc1)[C@@H]1CCCN(c2ccnc(-c3cnc4cnc(C(F)(F)F)cn34)n2)C1` [IV-738]: over 1000 nM.
As to `Cn1cc(NC(=O)[C@H]2CCCN(c3ccnc(-c4cnc5cnc(C(F)(F)F)cn45)n3)C2)cn1` [IV-739], the Ki is over 1000 nM.
For `O=C(Nc1ccccn1)[C@H]1CCCN(c2ccnc(-c3cnc4cnc(C(F)(F)F)cn34)n2)C1` [IV-740] the value was over 1000 nM; for `O=C(N[C@H]1CCCN(c2ccnc(-c3cnc4cnc(C(F)(F)F)cn34)n2)C1)c1ccn(C2CC2)n1` [IV-742], over 1000 nM; for `O=C(N[C@H]1CCCN(c2ccnc(-c3cnc4cnc(C(F)(F)F)cn34)n2)C1)c1ccc(F)cc1F` [IV-744], over 1000 nM.
The same measure for `COCCn1ccc(C(=O)N[C@H]2CCCN(c3ccnc(-c4cnc5cnc(C(F)(F)F)cn45)n3)C2)n1` [IV-745]: over 1000 nM; for `O=C(N[C@H]1CCCN(c2ccnc(-c3cnc4cnc(C(F)(F)F)cn34)n2)C1)c1ccc(F)c(F)c1` [IV-746]: over 1000 nM.

The record behind these values is patent publication US10988477B2 (Merck Patent GmbH, priority 2018, dated 2021).
